Test results as given in US12569453B2, “Use of tapinarof for the treatment of atopic dermatitis” (Dermavant Sciences GmbH, priority 2018, dated 2026).

Experiments:
[1] = test system: adolescent and adult subjects with AD; assay: Phase II AD study: safety and tolerability; assay type: in vivo, human
Protocol: Safety was assessed by the monitoring and recording of all AEs and serious adverse events (SAEs); evaluation of local (application site) tolerability; monitoring of hematology (including peripheral blood immunophenotyping and immunoglobulins), clinical chemistry, and vital signs; and the performance of ECGs and physical examinations.

[2] = test system: adult subjects with psoriasis; assay: Phase II/2b psoriasis study: safety and tolerability; assay type: in vivo, human
Protocol: Safety was assessed by the monitoring and recording of all AEs and serious adverse events (SAEs); evaluation of local (application site) tolerability; monitoring of hematology (including peripheral blood Immunophenotyping and Immunoglobulins), clinical chemistry, and vital signs; and the performance of ECGs and physical examinations.
Safety assessments included incidence, frequency and severity of AEs, evaluation of local (application-site) tolerability, clinical laboratory parameters, vital signs, electrocardiogram changes, and physical examinations. An unblinded Independent Data Monitoring Committee monitored patient safety. Investigators assessed the overall degree of irritation at the application sites using a scale of 0 (no irritation) to 4 (very severe/strong reaction) at each study visit. A score of 3 or 4 was reported as an AE. Study treatment was discontinued if a score of 4 was noted. Subject-reported tolerability was assessed using a 5-point tolerability scale of 0 (none) to 4 (strong/severe) to assess the presence and degree of burning/stinging and itching at the application site within 2 hours following application of tapinarof or vehicle.

[3] = rat subcutaneous 13-week toxicology study (NOAEL) and predicted safety margin; settings: in vivo, sc, rat subcutaneous 3 mg/kg/day, read-out: NOAEL AUC(0-24)
Text: The predicted maximum systemic exposure to Tapinarof in this study was expected to be lower than the no observed adverse effects level (NOAEL) identified in nonclinical toxicology studies.

[4] = Japanese subjects, pooled active (n=30)
[5] = adolescent subjects, pooled active (n=49)
[6] = adult subjects, pooled active (n=116)
[7] = all cases in active treatment groups
[8] = pooled active treatment groups (n=165)
[9] = pooled active treatment groups (n=152)
[10] = pooled tapinarof groups (n=152)

CC(C)c1c(O)cc(/C=C/c2ccccc2)cc1O [Tapinarof, 3,5-Dihydroxy-4-isopropyl-trans-stilbene]
Impetigo ([1]; 0.5% BID): 0 n | Serious TEAEs ([1]; 0.5% BID): 0 n | atopic dermatitis leading to study treatment discontinuation ([1]; 0.5% BID): 7% | subjects with abnormal clinically significant ECGs at any post-screening visit ([1]; 0.5% BID): 12% | Nasopharyngitis ([1]; 0.5% BID, listed as GSK2894512): 4 n | Impetigo ([1]; 0.5% QD): 0 n | Serious TEAEs ([1]; 0.5% QD): 0 n | atopic dermatitis leading to study treatment discontinuation ([1]; 0.5% QD): 2% | subjects with abnormal clinically significant ECGs at any post-screening visit ([1]; 0.5% QD): 21% | Nasopharyngitis ([1]; 0.5% QD, listed as GSK2894512): 1 n | subjects with abnormal clinically significant ECGs at any post-screening visit ([1]; 1% BID): 30% | Nasopharyngitis ([1]; 1% BID, listed as GSK2894512): 3 n | Acne ([1]; 1% QD): 0 n | Dermatitis atopic ([1]; 1% QD): 0 n | Discontinuous due to TEAEs ([1]; 1% QD): 0 n | Impetigo ([1]; 1% QD): 0 n | Serious TEAEs ([1]; 1% QD): 0 n | subjects with abnormal clinically significant ECGs at any post-screening visit ([1]; 1% QD): 24% | Nasopharyngitis ([1]; 1% QD, listed as GSK2894512): 5 n | subjects permanently discontinuing treatment due to TEAEs [1, 4]: 3% | subjects with mild TEAEs [1, 4]: 50% | subjects with moderate TEAEs [1, 4]: 10% | subjects with treatment-related TEAEs [1, 4]: 17% | atopic dermatitis AE, median duration ([1]; active treatment groups): 12.5 days | atopic dermatitis AE, median time to onset ([1]; active treatment groups): 40.5 days | headache, median duration ([1]; active treatment groups): 2 days | headache, median time to onset ([1]; active treatment groups): 2 days | nasopharyngitis, median duration ([1]; active treatment groups): 9 days | nasopharyngitis, median time to onset ([1]; active treatment groups): 32 days | upper respiratory tract infection, median duration ([1]; active treatment groups): 16.5 days | upper respiratory tract infection, median time to onset ([1]; active treatment groups): 32.5 days | subjects permanently discontinuing treatment due to TEAEs [1, 5]: 6% | subjects with mild TEAEs [1, 5]: 41% | subjects with moderate TEAEs [1, 5]: 14% | subjects with severe TEAEs [1, 5]: 2% | subjects with treatment-related TEAEs [1, 5]: 16% | subjects permanently discontinuing treatment due to TEAEs [1, 6]: 3% | subjects with mild TEAEs [1, 6]: 28% | subjects with moderate TEAEs [1, 6]: 25% | subjects with severe TEAEs [1, 6]: 3% | subjects with treatment-related TEAEs [1, 6]: 14% | folliculitis, median start date (since Day 1) [1, 7]: 17 days | subjects with elevations in liver chemistries (ALT/AST >2×ULN) ([1]; all in Tapinarof treatment groups): 6 subjects | treatment-related atopic dermatitis ([1]; pooled active groups): 1% | Acne ([1]; pooled active groups (n=165)): 4% | Impetigo ([1]; pooled active groups (n=165)): 1% | Nasopharyngitis ([1]; pooled active groups (n=165)): 8% | atopic dermatitis (worsening/flare) ([1]; pooled active groups (n=165)): 4% | atopic dermatitis leading to study treatment discontinuation ([1]; pooled active groups (n=165)): 2% | folliculitis ([1]; pooled active groups (n=165)): 11% | headache ([1]; pooled active groups (n=165)): 5% | treatment-related application site pain ([1]; pooled active groups (n=165)): 1% | treatment-related folliculitis ([1]; pooled active groups (n=165)): 5% | upper respiratory tract infection ([1]; pooled active groups (n=165)): 7% | subjects permanently discontinuing treatment due to TEAEs [1, 8]: 4% | subjects with TEAEs [1, 8]: 56% | subjects with mild TEAEs [1, 8]: 32% | subjects with moderate TEAEs [1, 8]: 22% | subjects with severe TEAEs [1, 8]: 2% | subjects with treatment-related TEAEs [1, 8]: 15% | subjects with TEAEs considered related to treatment ([1]; treatment groups pooled): 24 subjects | subjects with at least one AE ([1]; treatment groups pooled): 97 subjects | subjects with at least one TEAE ([1]; treatment groups pooled): 93 subjects | Application-site dermatitis ([2]; 0.5% BID): 0 n | Dermatitis allergic ([2]; 0.5% BID): 0 n | Miliaria ([2]; 0.5% BID): 0 n | Urticaria ([2]; 0.5% BID): 0 n | headache ([2]; 0.5% BID): 0 n | Acne ([2]; 0.5% QD): 0 n | Dermatitis allergic ([2]; 0.5% QD): 0 n | Serious TEAEs ([2]; 0.5% QD): 0 n | Urticaria ([2]; 0.5% QD): 0 n | Vomiting ([2]; 0.5% QD): 0 n | Miliaria ([2]; 1% BID): 0 n | Urticaria ([2]; 1% BID): 0 n | Vomiting ([2]; 1% BID): 0 n | Nasopharyngitis ([2]; 1% BID, listed as GSK2894512): 1 n | folliculitis ([2]; 1% BID, listed as GSK2894512): 8 n | Acne ([2]; 1% QD): 0 n | Dermatitis allergic ([2]; 1% QD): 0 n | Nasopharyngitis ([2]; 1% QD): 0 n | Vomiting ([2]; 1% QD): 0 n | folliculitis, median duration (resolved events) ([2]; active treatment groups): 55 days | folliculitis, median time to onset ([2]; active treatment groups): 26 days | headache, median duration ([2]; active treatment groups): 3 days | headache, median time to onset ([2]; active treatment groups): 2.5 days | nasopharyngitis, median duration ([2]; active treatment groups): 12 days | nasopharyngitis, median time to onset ([2]; active treatment groups): 13 days | contact dermatitis, median duration [2, 7]: 32 days | contact dermatitis, median time to onset [2, 7]: 30 days | subjects with serious TEAEs ([2]; all in Tapinarof treatment groups, none treatment-related): 7 subjects | Nasopharyngitis [2, 9]: 5% | Vomiting [2, 9]: 2% | headache [2, 9]: 4% | subjects permanently discontinuing treatment due to TEAEs [2, 9]: 10% | subjects with TEAEs [2, 9]: 56% | subjects with mild TEAEs [2, 9]: 27% | subjects with moderate TEAEs [2, 9]: 22% | subjects with severe TEAEs [2, 9]: 7% | subjects with treatment-related TEAEs [2, 9]: 22% | treatment-related monocyte count decreased [2, 9]: 1% | contact dermatitis [2, 10]: 8% | folliculitis [2, 10]: 13% | treatment-related folliculitis [2, 10]: 10% | subjects with TEAEs considered related to treatment ([2]; treatment groups pooled): 34 subjects | subjects with at least one AE ([2]; treatment groups pooled): 89 subjects | subjects with at least one TEAE ([2]; treatment groups pooled): 85 subjects | AUC(0-t) [3]: 99 ng·h/mL
